Literature values, collected in patent US12133876B2, “TryNOVID boosts immune system against viruses and variants” (priority 2022, dated 2024).

Columns and labels:
[1] = system: COVID-19; conditions: high dose; patients requiring hospitalization due to proven COVID-19; plus best-available therapy versus best-available therapy
[2] = system: SARS-COV-2; conditions: binding to SARS-COV-2 (Kulkarni et al., 2020)
[3] = system: enveloped viruses; conditions: Coronavirus, HIV, Measles virus, Herpes simplex virus type 1 and 2, Influenza virus and other listed enveloped viruses (Lieberman et al., 2006)

Row | SMILES | binding affinities in molecular docking [2] | other results
1 | C=C1CC[C@H](O)C/C1=C/C=C1\CCC[C@]2(C)[C@@H]([C@H](C)CCCC(C)(C)O)CC[C@@H]12 [calcifediol, 25-hydroxyvitamin D] |  | need for ICU treatment [1]: significantly reduced
2 | CC1CCC(C(C)C)C(O)C1 (stereo not shown) [menthol] | good binding affinities | 
3 | C=CC(C)=CCC=C(C)C [ocimene] | good binding affinities | 
4 | C=C1C2CCC(C2)C1(C)C (stereo not shown) [camphene] | good binding affinities | 
5 | CCCCCCCCCCCC(=O)OCC(O)CO (stereo not shown) [Monolaurin, glycerol monolaurate] |  | inactivation of enveloped viruses [3]: able to inactivate
6 | CC(C)=C1CC[C@@H](C)CC1=O [pulegone] | good binding affinities | 
7 | Cc1ccc(C(C)C)c(O)c1 [thymol] | good binding affinities | 
